Paper PMC12284294 (iScience, 2025)
Read-outs that look alike come from different tables or passages of the source. Ends that are not written are not given here.

Columns and labels:
FPR1 [1] = biological target: T1, FPR1 (Homo sapiens, UniProt P21462); assay type: cell-based
T1 construct: expressed in transfected cells; host or cells: HEK293T
T1 sequence (P21462 1-350): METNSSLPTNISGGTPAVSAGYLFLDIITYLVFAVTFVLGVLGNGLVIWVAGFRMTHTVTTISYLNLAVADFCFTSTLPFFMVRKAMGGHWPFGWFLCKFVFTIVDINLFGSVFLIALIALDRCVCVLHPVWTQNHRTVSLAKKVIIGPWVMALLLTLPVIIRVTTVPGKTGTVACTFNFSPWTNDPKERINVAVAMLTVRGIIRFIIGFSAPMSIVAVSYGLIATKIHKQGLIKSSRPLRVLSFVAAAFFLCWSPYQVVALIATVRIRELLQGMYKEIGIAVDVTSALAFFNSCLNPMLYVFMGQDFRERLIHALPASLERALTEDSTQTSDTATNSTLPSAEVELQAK

[2] = test system: human polymorphonuclear granulocytes (PMN; neutrophils); assay type: cell-based; conditions: SARS-CoV-2 omicron B.1.1.529 spike pool peptides, 10 µM, PMN, n=6
FPR1 [3] = biological target: T1, FPR1; assay: biochemical; assay type: binding
FPR1, FPR2, FPR3, PMN = assay type: cell-based, human; conditions: […]; it matches an identified peptide or IgG epitope of COVID-19 patients
[4] = biological target: T2, Formyl peptide receptor 3 (human, UniProt P25089 1-353)
T2 chain: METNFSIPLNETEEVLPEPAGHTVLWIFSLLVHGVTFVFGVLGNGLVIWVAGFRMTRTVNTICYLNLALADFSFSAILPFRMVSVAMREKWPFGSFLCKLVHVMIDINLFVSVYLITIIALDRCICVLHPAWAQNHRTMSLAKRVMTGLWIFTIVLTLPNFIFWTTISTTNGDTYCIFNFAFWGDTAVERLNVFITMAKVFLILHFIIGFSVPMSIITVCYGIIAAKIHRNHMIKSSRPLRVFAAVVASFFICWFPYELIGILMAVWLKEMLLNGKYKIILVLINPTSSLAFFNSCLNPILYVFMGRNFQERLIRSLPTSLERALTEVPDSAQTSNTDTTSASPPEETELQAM

[5] = biological target: T3, Formyl peptide receptor 2 (human, UniProt P25090 1-351)
T3 chain: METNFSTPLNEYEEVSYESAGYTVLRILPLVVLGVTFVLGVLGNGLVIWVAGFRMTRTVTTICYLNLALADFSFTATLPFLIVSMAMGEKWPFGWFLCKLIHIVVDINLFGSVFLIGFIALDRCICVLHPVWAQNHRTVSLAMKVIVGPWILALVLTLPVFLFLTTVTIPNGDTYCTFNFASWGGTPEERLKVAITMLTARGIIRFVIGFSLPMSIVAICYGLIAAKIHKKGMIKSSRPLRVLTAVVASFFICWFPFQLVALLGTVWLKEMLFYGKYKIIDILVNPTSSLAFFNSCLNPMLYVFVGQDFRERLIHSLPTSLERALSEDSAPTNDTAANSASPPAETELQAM

[6] = biological target: T4, Formyl peptide receptor 1 (human, UniProt P21462 1-350)
T4 chain: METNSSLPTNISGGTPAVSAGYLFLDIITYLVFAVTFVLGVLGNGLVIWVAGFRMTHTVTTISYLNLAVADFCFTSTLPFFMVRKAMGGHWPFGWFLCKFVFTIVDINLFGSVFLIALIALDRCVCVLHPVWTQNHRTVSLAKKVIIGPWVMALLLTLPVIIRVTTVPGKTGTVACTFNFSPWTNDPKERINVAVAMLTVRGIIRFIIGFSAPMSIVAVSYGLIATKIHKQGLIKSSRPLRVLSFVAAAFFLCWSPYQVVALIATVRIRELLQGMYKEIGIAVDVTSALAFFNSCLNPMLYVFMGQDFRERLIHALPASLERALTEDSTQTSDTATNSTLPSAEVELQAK

[7] = biological target: T5, Formyl peptide receptor 1 (human, UniProt P21462 1-350); conditions: one partner purified
T5 sequence (looked up): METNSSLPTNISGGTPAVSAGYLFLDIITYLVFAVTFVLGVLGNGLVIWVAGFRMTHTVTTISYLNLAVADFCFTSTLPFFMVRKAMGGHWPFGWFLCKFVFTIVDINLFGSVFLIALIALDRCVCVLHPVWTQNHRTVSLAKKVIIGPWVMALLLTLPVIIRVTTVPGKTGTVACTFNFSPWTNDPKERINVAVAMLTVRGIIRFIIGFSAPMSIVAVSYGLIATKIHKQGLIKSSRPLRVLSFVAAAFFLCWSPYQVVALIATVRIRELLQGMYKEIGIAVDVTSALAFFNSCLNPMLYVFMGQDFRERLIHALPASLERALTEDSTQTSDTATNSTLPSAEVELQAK

[8] = biological target: T6, Formyl peptide receptor 2 (human, UniProt P25090 1-351); conditions: one partner purified
T6 sequence (looked up): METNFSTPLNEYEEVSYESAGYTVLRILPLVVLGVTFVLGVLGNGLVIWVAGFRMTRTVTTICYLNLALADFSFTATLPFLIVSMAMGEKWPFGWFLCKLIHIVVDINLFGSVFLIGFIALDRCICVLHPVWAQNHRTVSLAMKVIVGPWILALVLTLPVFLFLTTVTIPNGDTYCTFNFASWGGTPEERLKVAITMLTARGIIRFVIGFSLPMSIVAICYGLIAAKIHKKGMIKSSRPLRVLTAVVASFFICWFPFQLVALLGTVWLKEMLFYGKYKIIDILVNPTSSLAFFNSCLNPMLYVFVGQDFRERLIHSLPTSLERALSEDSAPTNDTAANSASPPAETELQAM

[9] = biological target: T7, Formyl peptide receptor 3 (human, UniProt P25089 1-353); conditions: one partner purified
T7 sequence (looked up): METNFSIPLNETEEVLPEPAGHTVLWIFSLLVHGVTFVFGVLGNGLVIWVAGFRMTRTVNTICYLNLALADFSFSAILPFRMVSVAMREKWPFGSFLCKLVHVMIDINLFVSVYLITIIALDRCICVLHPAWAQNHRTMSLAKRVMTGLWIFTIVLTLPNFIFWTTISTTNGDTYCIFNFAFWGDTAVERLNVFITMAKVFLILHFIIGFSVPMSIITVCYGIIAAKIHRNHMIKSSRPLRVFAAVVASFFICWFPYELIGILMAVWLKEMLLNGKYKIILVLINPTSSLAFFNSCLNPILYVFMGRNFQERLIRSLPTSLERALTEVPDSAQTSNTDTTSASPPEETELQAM

[10] = biological target: T2, Formyl peptide receptor 3
[11] = biological target: T3, Formyl peptide receptor 2
[12] = biological target: T4, Formyl peptide receptor 1

In the case of PGTNTSNQVAVLYQG, the “non-activators of FPR1 and PMNs: FPR1” value (FPR1 [1]) is reported as “non-activators of FPR1 and PMNs” and the “non-activators of FPR1 and PMNs: PMNs” value [2] is reported as “non-activators of FPR1 and PMNs”.

With ALGKLQDVVNHNAQA the “non-activators of FPR1 and PMNs: FPR1” value (FPR1 [1]) was “non-activators of FPR1 and PMNs” and the “non-activators of FPR1 and PMNs: PMNs” value [2] was “non-activators of FPR1 and PMNs”.

In the case of PGQTGNIADYNYKLP, the “non-activators of FPR1 and PMNs: FPR1” value (FPR1 [1]) is reported as “non-activators of FPR1 and PMNs” and the “non-activators of FPR1 and PMNs: PMNs” value [2] is reported as “non-activators of FPR1 and PMNs”.

In the case of FHVISGTNGTKRFDN, the “non-activators of FPR1 and PMNs: FPR1” value (FPR1 [1]) is reported as “non-activators of FPR1 and PMNs” and the “non-activators of FPR1 and PMNs: PMNs” value [2] is reported as “non-activators of FPR1 and PMNs”.

With AISSVLNDIFSRLDK the “non-activators of FPR1 and PMNs: FPR1” value (FPR1 [1]) was “non-activators of FPR1 and PMNs” and the “non-activators of FPR1 and PMNs: PMNs” value [2] was “non-activators of FPR1 and PMNs”.

`CC[C@H](C)[C@H](NC(=O)[C@H](Cc1ccc(O)cc1)NC(=O)[C@H](CCC(N)=O)NC(=O)[C@@H](N)CCC(=O)O)C(=O)N[C@@H](CCCCN)C(=O)N[C@@H](Cc1c[nH]c2ccccc12)C(=O)N1CCC[C@H]1C(=O)N[C@@H](Cc1c[nH]c2ccccc12)C(=O)N[C@@H](Cc1ccc(O)cc1)C(=O)N[C@H](C(=O)N[C@@H](Cc1c[nH]c2ccccc12)C(=O)N[C@@H](CC(C)C)C(=O)O)C(C)C` [CV3] gave an IC50 (FPR1 [3]) of 3800 nM.

With CEFQFCNDPFLDHKN the “non-activators of FPR1 and PMNs: FPR1” value (FPR1 [1]) was “non-activators of FPR1 and PMNs” and the “non-activators of FPR1 and PMNs: PMNs” value [2] was “non-activators of FPR1 and PMNs”.

For YFASIEKSNIIRGWI, the “non-activators of FPR1 and PMNs: FPR1” value (FPR1 [1]) was “non-activators of FPR1 and PMNs” and the “non-activators of FPR1 and PMNs: PMNs” value [2] was “non-activators of FPR1 and PMNs”.

TSNQVAVLYQGVNCT was tested, and the “non-activators of FPR1 and PMNs: FPR1” value (FPR1 [1]) was “non-activators of FPR1 and PMNs” and the “non-activators of FPR1 and PMNs: PMNs” value [2] was “non-activators of FPR1 and PMNs”.

For KHTPIIVREPEDLPQ, the “non-activators of FPR1 and PMNs: FPR1” value (FPR1 [1]) was “non-activators of FPR1 and PMNs” and the “non-activators of FPR1 and PMNs: PMNs” value [2] was “non-activators of FPR1 and PMNs”.

With EPEDLPQGFSALEPL the “significant PMN activators (group of the spike peptide pool screening)” value [2] was “significant PMN activators” and the “Match with activator (region): Receptor” value (FPR1, FPR2, FPR3, PMN) was “PMN”.

With EQYIKWPWYVWL (also: fluorescently labeled) [fluorescently labeled SARS-CoV MPR peptide CV3] the Kd [4] was 756 nM, the Kd [5] was 337 nM and the Kd [6] was 7.3 nM.

In the case of MYVKWPWYVWLL (also: fluorescently labeled) [fluorescently labeled N-terminally truncated HCoV-HKU-1 MPR peptide CV2∗], the “fold lower binding affinity than the other MPR peptides” value [7] is reported as roughly 10 fold, the “fold lower binding affinity than the other MPR peptides” value [8] is reported as roughly 10 fold and the “fold lower binding affinity than the other MPR peptides” value [9] is reported as roughly 10 fold. The Kd [10] was greater than 1000 nM, the Kd [11] was greater than 1000 nM and the Kd [12] was 66.9 nM.

ETYIKWPWWVWL (also: fluorescently labeled) [fluorescently labeled HCoV-229E MPR peptide CV1] showed a Kd [4] of 366 nM, a Kd [5] of 287 nM and a Kd [6] of 8.4 nM.
